The source of these data is patent US11214835B1, “Methods and compositions for diagnosis and management of neurodegerative diseases” (UNIVERSITY OF SOUTH FLORIDA, priority 2017, dated 2022).

The subject of one data set is neuronal cells. The data set can be described thus: WST-1 cellular toxicity assay (Roche). The format is cell-based. For orientation: Formazan colour is commonly taken as a measure of viable cells.
In the next data set the test system is GAS5. Kind of data set: GAS5 stabilization in HT22 cells over-expressing UPF1, SYBR Green qPCR. The format is cell-based, mouse. To be noted: pre-treated 10 nM for 1 hour, then UPF1 transfection for 24 hours. How it is done: As the compound(s) were designed to bind to GAS5 such that it would disrupt binding to UPF1, the compound(s) ability to bind to GAS5 was examined. RNA-EMSA (REMSA) was performed as previously described. Briefly, GAS5 was cloned in TOPO vector which has the T7 promoter. In vitro transcription assay was performed with biotin-label using RiboScribe kit using T7 RNA polymerase at 37° C. for 2 h in the presence of nucleotides, RNase inhibitor, and 5× transcription buffer. 0.1 nM of transcribed, biotin-labeled GAS5 was incubated with 10 nM NPG567 in presence of 10U yeast tRNA and 10 units of RNase inhibitor in a final volume of 10 μl of RNA shift buffer for 20 min at room temperature, detected using Biotin Chromogenic Detection kit (ThermoFisher). […] Next, it was evaluated whether NPG567 could stabilize GAS5 in HT22 cells over-expressing UPF1 (from Addgene). UPF1 was transiently transfected for 24 h (UPF oe) or pre-treated with NPG567 (10 nM) for 1 hour followed by transfection of UPF1 for 24 hours. GAS5 levels were measured using SYBR Green qPCR. […]
Methods in brief: Cell culture: Immortalized clonal mouse hippocampal cell line (HT22) (obtained from Salk Institute) and cultured in DMEM+10% FBS. […] The cells are checked for viability and counted and plated into T-25 flasks in neurobasal media with B27 supplement. […]
On the technique in general: Quantitative PCR measures a nucleic acid by following its amplification.

Take `NCCCC[C@H]1CN(C(=O)CCc2ccccc2)CC(=O)N[C@@H](CCC(=O)O)CN(CC(N)=O)C(=O)CCSCc2ccc(cc2)C(=O)N[C@@H](CCC(=O)O)CN(C(=O)CCC(=O)O)CC(=O)N[C@@H](CCCCN)CN(C(=O)CCCN)CC(=O)N1` [NPG567]: the cellular toxicity result with neuronal cells (WST-1 assay (Roche)) was “does not cause cellular toxicity”. Also, in the data set with neuronal cells (in neurons), the toxicity to cells result is “not toxic to cells”. Further, the “GAS5 levels with UPF1 over-expression” value in the data set on GAS5 is on record as “increases GAS5 levels”.
